The record followed here is ChEMBL document CHEMBL5380816, “Inclusion of Nitrofurantoin into the Realm of Cancer Chemotherapy via Biology-Oriented Synthesis and Drug Repurposing” (J Med Chem, 2023).

Experiment [1] has as its system MCF7. Kind of experiment: Induction of apoptosis in human MCF7 cells assessed as early apoptotic cells incubated at 0.098 uM for 72 hrs by annexin V-FITC based propidium iodide dual staining assay (reference value: 0.06%). Format: functional.
The subject of experiment [2] is MCF7. The experiment can be described thus: Induction of apoptosis in human MCF7 cells assessed as viable cells incubated at 0.098 uM for 72 hrs by annexin V-FITC based propidium iodide dual staining assay (reference value: 99.9%). Format: functional. The settings on record: read-out: Activity.
Experiment [3] has as its system MCF7. The experiment can be described thus: Induction of apoptosis in human MCF7 cells assessed as early apoptotic cells by measuring bright green patch incubated at 0.098 uM for 72 hrs by acridine orange-ethidium bromide dual staining based fluorescence microscopic analysis. Format: functional, cell-based.
Experiment [4] concerns Caco-2. Kind of experiment: Anticancer activity against human Caco-2 cells assessed as cell shrinkage incubated at 0.098uM for 72 hrs by phase contrast inverted microscopic analysis. Format: functional, cell-based.
For experiment [5], the system named is MCF7. Kind of experiment: Anticancer activity against human MCF7 cells assessed as cell shrinkage incubated at 0.098uM for 72 hrs by phase contrast inverted microscopic analysis. Format: functional, cell-based.
Experiment [6] concerns HeLa. The experiment can be described thus: Induction of apoptosis in human HeLa cells assessed as early apoptotic cells incubated at 0.098 uM for 72 hrs by annexin V-FITC based propidium iodide dual staining assay (reference value: 2.77%). Format: functional.
Experiment [7] relates to HeLa. Kind of experiment: Induction of apoptosis in human HeLa cells assessed as total apoptotic cells incubated at 0.098 uM for 72 hrs by annexin V-FITC based propidium iodide dual staining assay (reference value: 0 +/- 0.035%). Format: functional.
The subject of experiment [8] is HeLa. Kind of experiment: Induction of apoptosis in human HeLa cells assessed as pro-oxidant effect by measuring free radical generation measured at 0.098 uM after 72 hrs. The class given is functional, cell-based.
Experiment [9] has as its system HepG2. Kind of experiment: Induction of apoptosis in human HepG2 cells assessed as late apoptotic cells by measuring orange to red patch incubated at 0.098 uM for 72 hrs by acridine orange-ethidium bromide dual staining based fluorescence microscopic analysis. Format: functional, cell-based.
The test system of experiment [10] is Caco-2. The experiment can be described thus: Induction of oxidative stress in human Caco-2 cells assessed as cell death by measuring redox alteration fluorescence incubated at 0.027 uM for 72 hrs in presence of dihydro dichlorofluorescein diacetate by DCFH-DA based flow cytometric analysis relative to control. The class given is functional. For orientation: In flow cytometry, cells or beads pass a laser one at a time.

The subject of experiment [11] is HeLa. The experiment can be described thus: Induction of apoptosis in human HeLa cells assessed as late apoptotic cells incubated at 0.098 uM for 72 hrs by annexin V-FITC based propidium iodide dual staining assay (reference value: 0%). The class given is functional.
The subject of experiment [12] is HeLa. Kind of experiment: Induction of apoptosis in human HeLa cells assessed as viable cells by measuring green uniform patch incubated at 0.017 uM for 72 hrs by acridine orange-ethidium bromide dual staining based fluorescence microscopic analysis. The class given is functional, cell-based.
Experiment [13] concerns MCF7. Kind of experiment: Induction of apoptosis in human MCF7 cells assessed as necrotic cells incubated at 0.017 uM for 72 hrs by annexin V-FITC based propidium iodide dual staining assay (reference value: 0.03%). Format: functional.
Experiment [14] relates to HeLa. The experiment can be described thus: Induction of apoptosis in human HeLa cells assessed as total apoptotic cells incubated at 0.017 uM for 72 hrs by annexin V-FITC based propidium iodide dual staining assay (reference value: 0 +/- 0.035%). Format: functional.
Experiment [15] deals with HeLa. Kind of experiment: Induction of apoptosis in human HeLa cells assessed as necrotic cells incubated at 0.017 uM for 72 hrs by annexin V-FITC based propidium iodide dual staining assay (reference value: 0%). Format: functional.
Experiment [16] concerns Caco-2. Kind of experiment: Induction of apoptosis in human Caco-2 cells assessed as early apoptotic cells incubated at 0.017 uM for 72 hrs by annexin V-FITC based propidium iodide dual staining assay (reference value: 0.07%). Format: functional.
Experiment [17] deals with Caco-2. Kind of experiment: Anticancer activity against human Caco-2 cells assessed as losing contact with neighbouring cells incubated at 0.11 uM for 72 hrs by phase contrast inverted microscopic analysis. Format: functional, cell-based.
Experiment [18] concerns HeLa. Kind of experiment: Induction of apoptosis in human HeLa cells assessed as viable cells incubated at 0.11 uM for 72 hrs by annexin V-FITC based propidium iodide dual staining assay (reference value: 97.23%). Format: functional. The settings on record: read-out: Activity.
The subject of experiment [19] is HepG2. The experiment can be described thus: Induction of apoptosis in human HepG2 cells assessed as caspase3/7 activation at 0.11 uM using caspase-glo 3/7 as substrate relative to control. The class given is functional.
Experiment [20] has as its system MCF7. Kind of experiment: Induction of DNA damage in human MCF7 cells assessed as increase in p53 expression at 5 uM incubated for 24 hrs by Western blot analysis. The class given is functional, cell-based. A general note: A western blot detects proteins with antibodies after separation by electrophoresis.
The test system of experiment [21] is MCF7. Kind of experiment: Anticancer activity against human MCF7 cells incubated for 24 hrs by MTT assay. The class given is functional, cell-based. Conditions: MCF7, 24 h. On the technique in general: Formazan colour is commonly taken as a measure of viable cells.
Experiment [22] deals with Caco-2. The experiment can be described thus: Induction of apoptosis in human Caco-2 cells assessed as necrotic cells incubated at 0.11 uM for 72 hrs by annexin V-FITC based propidium iodide dual staining assay (reference value: 0.02%). The class given is functional.
Experiment [23] concerns HepG2. Kind of experiment: Induction of apoptosis in human HepG2 cells assessed as necrotic cells incubated at 0.11 uM for 72 hrs by annexin V-FITC based propidium iodide dual staining assay (reference value: 0.33%). The class given is functional.
Experiment [24] concerns MCF7. Kind of experiment: Induction of apoptosis in human MCF7 cells assessed as total apoptotic cells incubated at 0.11 uM for 72 hrs by annexin V-FITC based propidium iodide dual staining assay (reference value: 0.04 %). The class given is functional.
The subject of experiment [25] is Caco-2. The experiment can be described thus: Induction of oxidative stress in human Caco-2 cells assessed as cell death by measuring redox alteration fluorescence incubated at 0.11 uM for 72 hrs in presence of dihydro dichlorofluorescein diacetate by DCFH-DA based flow cytometric analysis relative to control. Format: functional.
The test system of experiment [26] is HepG2. The experiment can be described thus: Induction of apoptosis in human HepG2 cells assessed as pro-oxidant effect by measuring free radical generation measured at 0.11 uM after 72 hrs. The class given is functional, cell-based.
The test system of experiment [27] is HeLa. The experiment can be described thus: Anticancer activity against human HeLa cells assessed as round cells incubated at 0.097uM for 72 hrs by phase contrast inverted microscopic analysis. The class given is functional, cell-based.
Experiment [28] deals with Caco-2. Kind of experiment: Induction of apoptosis in human Caco-2 cells assessed as total apoptotic cells incubated at 0.097 uM for 72 hrs by annexin V-FITC based propidium iodide dual staining assay (reference value: 0.04 +/- 0.005%). The class given is functional.
Experiment [29] has as its system HepG2. The experiment can be described thus: Induction of apoptosis in human HepG2 cells assessed as early apoptotic cells incubated at 0.097 uM for 72 hrs by annexin V-FITC based propidium iodide dual staining assay (reference value: 1.74%). The class given is functional.
Experiment [30] concerns MCF7. Kind of experiment: Anticancer activity against human MCF7 cells assessed as cell shrinkage incubated at 0.097uM for 72 hrs by phase contrast inverted microscopic analysis. Format: functional, cell-based.
The test system of experiment [31] is HepG2. Kind of experiment: Induction of apoptosis in human HepG2 cells assessed as necrotic cells incubated at 0.097 uM for 72 hrs by annexin V-FITC based propidium iodide dual staining assay (reference value: 0.33%). The class given is functional.
In experiment [32] the test system is Caco-2. Kind of experiment: Anticancer activity against human Caco-2 cells assessed as cell shrinkage incubated at 0.097uM for 72 hrs by phase contrast inverted microscopic analysis. Format: functional, cell-based.
In experiment [33] the test system is Caco-2. The experiment can be described thus: Induction of oxidative stress in human Caco-2 cells assessed as cell death by measuring redox alteration fluorescence incubated at 0.017 uM for 72 hrs in presence of dihydro dichlorofluorescein diacetate by DCFH-DA based flow cytometric analysis relative to control. The class given is functional.
Experiment [34] relates to MCF7. The experiment can be described thus: Induction of oxidative stress in human MCF7 cells assessed as cell death by measuring redox alteration fluorescence incubated at 0.11 uM for 72 hrs in presence of dihydro dichlorofluorescein diacetate by DCFH-DA based flow cytometric analysis relative to control. The class given is functional.
Experiment [35] deals with MCF7. Kind of experiment: Induction of apoptosis in human MCF7 cells assessed as viable cells incubated at 0.097 uM for 72 hrs by annexin V-FITC based propidium iodide dual staining assay (reference value: 99.9%). Format: functional. Conditions: read-out: Activity.

What is called pIC50 is the negative decadic logarithm of the IC50, by convention in mol/L. High values mean a small IC50, low ones a large IC50.

Structures are written as SMILES. pIC50: −log10 of the molar value. Calls of active or inactive are those of the source. The rule behind the calls is not given here.

Take `O=C(CN1C(=O)CN(/N=C/c2ccc([N+](=O)[O-])o2)C1=O)c1ccc(Cl)cc1`: the Activity in the experiment with MCF7 [1] is given as 4.77%; with HeLa [6], 6.1%; in the experiment on HeLa [7], 64.08%; in the experiment on Caco-2 [10], 54.7%; with HeLa [11], 62.92%. The viability at 0.098 µM with MCF7 [2] was found to be 63.6%. Moreover, the result in the experiment on MCF7 [3], with Caco-2 [4], with MCF7 [5], in the experiment with HeLa [8] and in the experiment on HepG2 [9] was Active.

Regarding `O=c1[nH]cc(F)c(=O)[nH]1` [FLUOROURACIL], the result in the experiment with HeLa [12] was Active. The Activity in the experiment on MCF7 [13] is listed as 0.68%; in the experiment on HeLa [14], 4.29%; in the experiment on HeLa [15], 0.89%; with Caco-2 [16] it was 6.74%.

Consider `C#CCN1C(=O)CN(/N=C/c2ccc([N+](=O)[O-])o2)C1=O`, for which the result in the experiment on Caco-2 [17], in the experiment on MCF7 [20] and in the experiment with HepG2 [26] was Active. In addition, the viability at 0.11 µM with HeLa [18] was 66.4%. The Activity in the experiment on HepG2 [19] was 63%; in the experiment with Caco-2 [22] it was 0.57%; in the experiment with HepG2 [23] it was 3.66%; in the experiment with MCF7 [24] it was 38.72%; in the experiment on Caco-2 [25], 45.56%. The molecule also had a pIC50 in the experiment with MCF7 [21] of 3.92.

On to `NS(=O)(=O)c1ccc(-n2cc(CN3C(=O)CN(/N=C/c4ccc([N+](=O)[O-])o4)C3=O)nn2)cc1`, for which the result in the experiment with HeLa [27], in the experiment with MCF7 [30] and in the experiment with Caco-2 [32] was Active. The Activity in the experiment with Caco-2 [28] stood at 36.26%; with HepG2 [29] it was 21.02%; with HepG2 [31], 0%; in the experiment on Caco-2 [33], 22.21%; in the experiment with MCF7 [34], 51.08%. The viability at 0.097 µM with MCF7 [35] was found to be 31.1%.
